ChEMBL document CHEMBL5053507, “Oxadiazepinone HBV capsid assembly modulators” (Bioorg Med Chem Lett, 2021)
≈ marks a conversion by molar mass, not a printed value.

What was measured:
[1] = Metabolic stability in human liver microsomes assessed as intrinsic clearance; format: ADME, Microsome; details: read-out: CLH
[2] = Thermodynamic solubility of the compound at pH 7; format: physicochemical; details: buffer, read-out: Therm_solubility
[3] = Clearance in CD1 mouse at 2 mg/kg, iv; format: ADME, organism-based; details: in vivo
[4] = Volume of distribution at steady state in CD1 mouse at 2 mg/kg, iv; format: ADME, organism-based; details: in vivo, read-out: Vdss
[5] = Half life in CD1 mouse at 2 mg/kg, iv; format: ADME, organism-based; details: in vivo
[6] = Clearance in Sprague-Dawley rat at 0.6 mg/kg, iv; format: ADME, organism-based; details: in vivo
[7] = Volume of distribution at steady state in Sprague-Dawley rat at 0.6 mg/kg, iv; format: ADME, organism-based; details: in vivo, read-out: Vdss
[8] = Half life in Sprague-Dawley rat at 0.6 mg/kg, iv; format: ADME, organism-based; details: in vivo
[9] = Solubility of the compound; format: physicochemical
[10] = Clearance in Sprague-Dawley rat at 5 mg/kg, po or 1.25 mg/kg, iv relative to liver blood flow; format: ADME, organism-based; details: in vivo
[11] = Clearance in Mongrel dog at 2.5 mg/kg, po or 1 mg/kg, iv relative to liver blood flow; format: ADME, organism-based, Canis lupus familiaris; details: in vivo
[12] = Volume of distribution at steady state in Sprague-Dawley rat at 5 mg/kg, po or 1.25 mg/kg, iv; format: ADME, organism-based; details: in vivo
[13] = Volume of distribution at steady state in Mongrel dog at 2.5 mg/kg, po or 1 mg/kg, iv; format: ADME, organism-based, Canis lupus familiaris; details: in vivo
[14] = Half life in Sprague-Dawley rat at 5 mg/kg, po or 1.25 mg/kg, iv; format: ADME, organism-based; details: in vivo
[15] = Half life in Mongrel dog at 2.5 mg/kg, po or 1 mg/kg, iv; format: ADME, organism-based, Canis lupus familiaris; details: in vivo
[16] = Cmax in Sprague-Dawley rat at 5 mg/kg, po; format: ADME, organism-based; design: dose 5 mg/kg, route po; details: in vivo
[17] = Cmax in Mongrel dog at 2.5 mg/kg, po; format: ADME, organism-based, Canis lupus familiaris; design: dose 2.5 mg/kg, route po; details: in vivo
[18] = Tmax in Sprague-Dawley rat at 5 mg/kg, po; format: ADME, organism-based; details: in vivo
[19] = Tmax in Mongrel dog at 2.5 mg/kg, po; format: ADME, organism-based, Canis lupus familiaris; details: in vivo
[20] = AUC (0 to infinity) in Sprague-Dawley rat at 5 mg/kg, po; format: ADME, organism-based; design: time infinity, dose 5 mg/kg, route po; details: in vivo
[21] = AUC (0 to infinity) in Mongrel dog at 2.5 mg/kg, po; format: ADME, organism-based, Canis lupus familiaris; design: time infinity, dose 2.5 mg/kg, route po; details: in vivo
[22] = Ratio of AUC (0 to 24 hrs) in liver to plasma in Sprague-Dawley rat at 5 mg/kg, po or 1.25 mg/kg, iv; format: ADME, organism-based; details: read-out: Ratio AUC
[23] = Oral bioavailability in Sprague-Dawley rat at 5 mg/kg; format: ADME, organism-based; details: in vivo
[24] = Oral bioavailability in Mongrel dog at 2.5 mg/kg; format: ADME, organism-based, Canis lupus familiaris; details: in vivo
[25] = Clearance in CD1 mouse at 10 mg/kg, po or 2.5 mg/kg, iv relative to liver blood flow; format: ADME, organism-based; details: in vivo
[26] = Volume of distribution at steady state in CD1 mouse at 10 mg/kg, po or 2.5 mg/kg, iv; format: ADME, organism-based; details: in vivo
[27] = Half life in CD1 mouse at 10 mg/kg, po or 2.5 mg/kg, iv; format: ADME, organism-based; details: in vivo
[28] = Cmax in CD1 mouse at 10 mg/kg, po; format: ADME, organism-based; design: dose 10 mg/kg, route po; details: in vivo
[29] = Tmax in CD1 mouse at 10 mg/kg, po; format: ADME, organism-based; details: in vivo
[30] = AUC (0 to infinity) in CD1 mouse at 10 mg/kg, po; format: ADME, organism-based; design: time infinity, dose 10 mg/kg, route po; details: in vivo
[31] = Oral bioavailability in CD1 mouse at 10 mg/kg; format: ADME, organism-based; details: in vivo
[32] = biological target: Core antigen (Hepatitis B virus) (UniProt Q03732); test: Modulation of capsid assembly in HBV infected in human HepG2.2.15 cells assessed as fold shift in inhibition of viral DNA replication in presence of 40% normal human serum incubated for 3 days followed by replacement with fresh medium containing compound and measured after 3 days by QuantiGene assay; format: cell-based; details: time 6.0 day
Core antigen (Hepatitis B virus), sequence (Q03732 as listed by the source): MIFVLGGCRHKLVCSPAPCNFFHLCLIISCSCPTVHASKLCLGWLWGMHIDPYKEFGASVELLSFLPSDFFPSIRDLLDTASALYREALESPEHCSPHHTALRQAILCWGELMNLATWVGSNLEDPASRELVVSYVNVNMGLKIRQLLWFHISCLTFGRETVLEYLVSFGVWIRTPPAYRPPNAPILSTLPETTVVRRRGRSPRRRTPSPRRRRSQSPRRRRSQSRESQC

Cytochrome P450 [33] = test: Induction of CYP (unknown origin); format: ADME, protein assay; details: human
Cytochrome P450 [34] = test: Inhibition of CYP (unknown origin); format: ADME, protein assay; details: human

Compound: C[C@@H]1Cc2nn3c(c2CN1C(=O)Nc1ccc(F)c(C#N)c1)C(=O)N(C)O[C@@H](C(=O)N(C)CC(F)F)C3
- CLint scaled [1]: 14 mL/min/kg
- solubility thermodynamic [2]: 45 µM (≈ 23.4 µg/mL)

Compound: CON(C)C(=O)c1n[nH]c2c1CN(C(=O)Nc1cccc(Cl)c1)CC2
- CLint scaled [1]: 33 mL/min/kg

Compound: CN(OC1COC1)C(=O)c1n[nH]c2c1CN(C(=O)Nc1cccc(Cl)c1)CC2
- CLint scaled [1]: 8 mL/min/kg
- solubility thermodynamic [2]: 183 µM (≈ 74.3 µg/mL)

Compound: C[C@@H]1Cc2nn3c(c2CN1C(=O)Nc1ccc(F)c(C#N)c1)C(=O)N(C)O[C@@H](CO)C3
- CLint scaled [1]: < 5 mL/min/kg
- solubility thermodynamic [2]: > 200 µM
- clearance [3]: 96 mL/min/kg
- Vd [4]: 4 L/kg
- half-life [5]: 1.2 h
- clearance [6]: 66 mL/min/kg
- Vd [7]: 1.9 L/kg
- half-life [8]: 0.5 h

Compound: Cc1cc(NC(=O)N2Cc3c(nn4c3C(=O)N(C)O[C@@H](CO)C4)C[C@H]2C)ccc1F
- CLint scaled [1]: < 5 mL/min/kg
- solubility thermodynamic [2]: > 200 µM
- clearance [3]: 39 mL/min/kg
- Vd [4]: 2.2 L/kg
- half-life [5]: 1.5 h
- clearance [6]: 47 mL/min/kg
- Vd [7]: 2.1 L/kg
- half-life [8]: 0.7 h

Compound: C[C@@H]1Cc2nn3c(c2CN1C(=O)Nc1ccc(F)c(Cl)c1)C(=O)N(C)O[C@@H](CN(C)C)C3
- CLint scaled [1]: 19 mL/min/kg
- solubility thermodynamic [2]: 176 µM (≈ 81.8 µg/mL)

Compound: CC(C)ON(C)C(=O)c1n[nH]c2c1CN(C(=O)Nc1cccc(Cl)c1)CC2
- CLint scaled [1]: 65 mL/min/kg

Compound: O=C(Nc1cccc(Cl)c1)N1CCc2[nH]nc(-c3ccccc3)c2C1
- CLint scaled [1]: 192 mL/min/kg

Compound: C[C@@H]1Cc2nn3c(c2CN1C(=O)Nc1ccc(F)c(C#N)c1)C(=O)N(C)OCC3
- CLint scaled [1]: < 5 mL/min/kg
- solubility thermodynamic [2]: 80 µM (≈ 31.9 µg/mL)

Compound: C[C@H]1Cc2[nH]nc(-c3cscn3)c2CN1C(=O)Nc1ccc(F)c(C#N)c1
- solubility [9]: 45 µM (≈ 17.2 µg/mL)

Compound: C[C@@H]1Cc2nn3c(c2CN1C(=O)Nc1ccc(F)c(C#N)c1)C(=O)N(C)O[C@@H](COCC(F)F)C3
- CLint scaled [1]: < 5 mL/min/kg
- solubility thermodynamic [2]: 22 µM (≈ 10.8 µg/mL)
- CLH [10]: 20%
- CLH [11]: 9%
- Vdss [12]: 2 L/kg
- Vdss [13]: 1.2 L/kg
- half-life ([14]; Sprague-Dawley): 1.8 h
- half-life [15]: 5.6 h
- Cmax ([16]; Sprague-Dawley, read-out: Cmax): 533 ng/mL
- Cmax [17]: 1170 ng/mL
- Tmax ([18]; Sprague-Dawley, read-out: Tmax): 1 h
- Tmax [19]: 0.75 h
- AUC(0-inf) [20]: 3840 ng·h/mL
- AUC(0-inf) [21]: 10600 ng·h/mL
- Kp [22]: 3.8
- bioavailability [23]: 71%
- bioavailability [24]: 70%

Compound: O=C(Nc1cccc(Cl)c1)N1CCc2[nH]nc(C(=O)N3CCCCO3)c2C1
- CLint scaled [1]: 38 mL/min/kg

Compound: C[C@@H]1Cc2nn3c(c2CN1C(=O)Nc1ccc(F)c(C(F)(F)F)c1)C(=O)N(C)O[C@@H](CO)C3
- CLint scaled [1]: 7.2 mL/min/kg
- solubility thermodynamic [2]: 172 µM (≈ 81.1 µg/mL)
- clearance [3]: 58 mL/min/kg
- Vd [4]: 5.3 L/kg
- half-life [5]: 1.6 h
- clearance [6]: 24 mL/min/kg
- Vd [7]: 2.3 L/kg
- half-life [8]: 1.4 h

Compound: CCON(C)C(=O)c1n[nH]c2c1CN(C(=O)Nc1cccc(Cl)c1)CC2
- CLint scaled [1]: 55 mL/min/kg

Compound: CN1O[C@H](CO)Cn2nc3c(c2C1=O)CN(C(=O)Nc1ccc(F)c(Cl)c1)CC3
- CLint scaled [1]: 9 mL/min/kg

Compound: CN1OC(CO)Cn2nc3c(c2C1=O)CN(C(=O)Nc1ccc(F)c(Cl)c1)CC3 (racemic)
- CLint scaled [1]: 8 mL/min/kg
- solubility thermodynamic [2]: 183 µM (≈ 77.6 µg/mL)

Compound: CCN(C)C(=O)c1n[nH]c2c1CN(C(=O)Nc1cccc(Cl)c1)CC2
- CLint scaled [1]: 87 mL/min/kg

Compound: CCCC(=O)c1n[nH]c2c1CN(C(=O)Nc1cccc(Cl)c1)CC2
- CLint scaled [1]: 214 mL/min/kg

Compound: CN1O[C@@H](CO)Cn2nc3c(c2C1=O)CN(C(=O)Nc1ccc(F)c(Cl)c1)CC3
- CLint scaled [1]: 7 mL/min/kg

Compound: C[C@@H]1Cc2nn3c(c2CN1C(=O)Nc1ccc(F)c(Cl)c1)C(=O)N(C)O[C@@H](CO)C3
- CLint scaled [1]: 11 mL/min/kg
- solubility thermodynamic [2]: 183 µM (≈ 80.1 µg/mL)

Compound: CN(OCCO)C(=O)c1n[nH]c2c1CN(C(=O)Nc1cccc(Cl)c1)CC2
- CLint scaled [1]: 31 mL/min/kg
- solubility thermodynamic [2]: 161 µM (≈ 63.4 µg/mL)

Compound: CCOC(=O)c1n[nH]c2c1CN(C(=O)Nc1cccc(Cl)c1)CC2
- CLint scaled [1]: 171 mL/min/kg

Compound: C[C@@H]1Cc2nn3c(c2CN1C(=O)Nc1ccc(F)c(C#N)c1)C(=O)N(C)O[C@@H](CF)C3
- CLint scaled [1]: < 5 mL/min/kg
- solubility thermodynamic [2]: 63 µM (≈ 27.1 µg/mL)
- CLH [10]: 93%
- CLH [25]: 21%
- CLH [11]: 11%
- Vdss [12]: 2.5 L/kg
- Vdss [26]: 6.3 L/kg
- Vdss [13]: 1.5 L/kg
- t1/2 ([14]; po, 5 mg/kg): 0.4 h
- half-life [27]: 7.9 h
- half-life [15]: 5.4 h
- Cmax [16]: 20.1 ng/mL
- Cmax [28]: 1420 ng/mL
- Cmax [17]: 1310 ng/mL
- Tmax ([18]; po, 5 mg/kg): 0.5 h
- Tmax [29]: 0.4 h
- Tmax [19]: 1 h
- AUC(0-inf) [20]: 71.8 ng·h/mL
- AUC(0-inf) [30]: 4340 ng·h/mL
- AUC(0-inf) [21]: 9550 ng·h/mL
- bioavailability [23]: 7.4%
- bioavailability [31]: 66%
- bioavailability [24]: 79%
- fold change (FC) [32]: 2
- Activity (Cytochrome P450 [33]): Not Active
- inhibition (INH) (Cytochrome P450 [34]): Not Active
